Values belong to the molecule of their own block, whether it stands above or below them.
Columns and labels:
[1] = system: cardiac lipid peroxidation; test: In vitro testing of antiperoxidative agents (cardiac lipid peroxidation); type: biochemical; conditions: rat cardiac liposomes, 60 minutes, 37° C., pH 7.4; read-out: Inhib. of Lipid Peroxidation IC50
Procedure: The test system employs hypoxanthine-xanthine oxidase (XO)-Fe^3+. ADP as the free radical generator and purified, native rat-heart membrane phosphoglyceride in Hepes-KCl buffer, pH 7.4, as the substrate. Inhibition of superoxide-dependent, iron-promoted lipid peroxidation in the linear reaction phase (after 1 hour of reaction) is measured as the net formation of thiobarbituric acid (TBA)-reactive material. In this system, the TBA-reactive material, isolated by HPLC, is exclusively (>95%) malondialdehyde (MDA), a fragmentation end-product arising from fatty acyl hydroperoxides and cyclic endoperoxides.
Conscious male Sprague-Dawley rats (~275 g) maintained on a normal rodent diet were decapitated. The hearts were rapidly removed and perfused via the aorta with ice-cold 10 mM Hepes buffer, pH 7.4. The aorta and atria were removed, and the ventricular tissue was blotted and weighed (wet weight). The hearts were minced on ice with scissors and finally homogenized (100 mg tissue/ml ice-cold buffer) for 15 seconds (3×5 seconds) with a Tekmar Tissumizer at "maximal" setting. The homogenate was filtered through 4-ply cheesecloth, and homogenate lipids were extracted and purified by a modified Bligh-Dyer procedure (M. D. Marshall and M. Kates, Biochem. Biophys. Acta 260, 558 (1972). The cardiac lipids were stored in CHCl3 under nitrogen at -20° C.
Liposomes were prepared from extracted and purified, native rat heart cardiac lipid and were used as substrate for free-radical attack. Cardiac lipid (in CHCl3) was placed in a glass flask and evaporated to dryness under nitrogen at room temperature; the flask was gently rotated during evaporation to yield a thin, dry lipid film. The lipid was taken up in 10 mM Hepes-0.145M CKl, pH 7.4, and was resuspended by indirect anaerobic sonication for 15 minutes at room temperature. The liposome suspension was used immediately.
A chelate was formed in Hepes-KCl buffer between Fe^3+ (1.0 mM FeCl3, final concentration) and ADP (10 mM, final concentration) at pH 7.4 with stirring at room temperature. Chelation was allowed to proceed for 90 minutes prior to use. The chelate was prepared fresh for each days experiments to ensure iron solubility, effective chelation, and valence state.
Malondialdehyde (MDA) equivalents were measured as thiobarbituric acid (TBA)-reactive material by the following modification of published methods. The reaction mixture, prepared fresh daily, contained water:BHT ([…] BHT in absolute ethanol):TBA (1.5% TBA in 0.2M Tris, pH 7.0) in the volume ratio 1:1:5. To each 1.0 ml of peroxidation reaction assayed (see below), 0.35 ml reaction mixture was added. After thorough mixing, the tubes were incubated in an 80° C. shaking water bath for 30 minutes. After this time, the tubes were plunged into an ice water bath, and the reaction was immediately stopped with 0.5 ml ice-cold 91% TCA followed by 2.0 ml CHCl3. After centrifugation for 30 minutes at 2000 rpm in a Sorval HL-8 rotor (4° C.), the absorbance of the washed, pink upper phase was read at 532 nm. A standard curve (0.8-40.0 nmol MDA) was run with every assay. For each curve, MDA was freshly prepared by acidification of 1,1,3,3-tetraethoxypropane with 75% TCA-2.3N HCl (0.15 ml acid mixture with 1.0 ml suitably diluted tetraethoxypropane). Computer-assisted regression analysis of the standard curve was used to quantify the molar amounts of MDA equivalents in the experimental samples.
Cardiac liposomes were subjected to superoxide-dependent, iron-promoted peroxidation in glass vessels to avoid the well-known antioxidant effects of many common polymerizing agents used to fabricate plastic labware. Screening was performed in triplicate in glass 12×75 mm tubes at a final reaction volume of 1.0 ml and a reaction time of 60 minutes. […]

[2] = Antibiotic-Induced Colitis in Hamsters, In Vivo; parameters: species or system male Syrian hamsters (LUG); conditions: >1.0 = therapy prolongs survival, ** p < 0.01
Procedure: Male Syrian hamsters (LUG), weighing 80 to 120 g were each given a single dose of 175 mg/kg of clindamycin-phosphate or of clindamycin-hydrochlorideintraperitoneally, to induce colitis. Approximately seven hours after injection, the animals were given the test compound orally or intraperitoneally and the therapy was continued twice a day for a period of four more days. For oral administration, the […] was suspended in water or dissolved in dimethylsulfoxide and delivered to the animals by gavage using an oral intubating needle. The effect of the therapy was measured by use of the Hazard Ratio, which is the ratio of the mortality of the animals treated with the test inhibitor compound contained in a vehicle to the mortality of the animals treated with the vehicle containing none of the test inhibitor compound. The mortality was determined for the test inhibitor compound-treated groups and for the vehicle-treated groups, respectively, twice daily, and was evaluated by comparing the survival curves of each group. The Kaplan-Meier estimate of the survival curve was calculated for each group and the Mantel-Cox (logrank) test was used to compare the survival curve of each test inhibitor compound-treated (therapy) group to that of the corresponding vehicle control group. […] (See, J. G. Bartlett et al. Amer. J. Vet. Res. 39: 1525-1530 (1978)).

SMILES: CCCc1c(OCCCCCCc2ccc(C(C)C)c(O)c2O)ccc(C(=O)O)c1O [4-[6-[2,3-dihydroxy-4-(1-methylethyl)phenyl]hexyloxy]-2-hydroxy-3-propylbenzoic acid]
- IC50 [1]: 700 nM

SMILES: CCCc1c(OCCCCc2cccc(O)c2O)ccc(C(C)=O)c1O [1-[2-Hydroxy-4-[4-(2,3-dihydroxyphenyl)butoxy]-3-propylphenyl]ethanone]
- IC50 [1]: > 1000 nM

SMILES: CCCc1c(OCCCCCCc2ccc(C(C)C)c(O)c2O)ccc(C(C)=O)c1O [1-[2-hydroxy-4 [6-[2,3 dihydroxy-4-(1-methylethyl)phenyl]hexyloxy]-3 propylphenyl]ethanone]
- IC50 [1]: 700 nM

SMILES: O=C(O)c1ccc(OCCCCCCc2cccc(O)c2O)cc1O [4-[6-(2,3-Dihydroxyphenyl)hexyloxy]-2-hydroxybenzoic acid]
- IC50 [1]: > 1000 nM

SMILES: CCCc1c(OCCCCCCc2cccc(O)c2O)ccc(C(C)=O)c1O [1-[2-hydroxy-4-[6-(2,3-dihydroxyphenyl)hexyloxy]-3-propylphenyl]ethanone]
- IC50 [1]: 700 nM

SMILES: CCCc1c(OCCCCc2cccc(O)c2O)ccc(C(=O)O)c1O [4-[4-(2,3-dihydroxyphenyl)butoxy]-2-hydroxy-3-propylbenzoic acid]
- IC50 [1]: 500 nM
- Hamster Colitis Model Hazard Ratio ([2]; 10 mg/kg p.o): 1.35
- Hamster Colitis Model Hazard Ratio ([2]; 100 mg/kg p.o): 0.1

SMILES: O=C(O)c1ccc(OCCCCCCc2cccc(O)c2O)cc1 [4-[6-(2,3-Dihydroxyphenyl)hexyloxy]benzoic acid]
- IC50 [1]: > 1000 nM

Continued, in another order:

- IC50 [1]: 600 nM
SMILES: CCCc1c(OCCCCCCc2ccc(O)c(O)c2)ccc(C(=O)O)c1O [4-[6-(3,4-dihydroxyphenyl)hexyloxy]-2-hydroxy-3-propylbenzoic acid]

- IC50 [1]: 400 nM
SMILES: CCCc1c(OCCCCCCCCCCc2cccc(O)c2O)ccc(C(=O)O)c1O [4-[10-(2,3-dihydroxyphenyl)decyloxy]-2-hydroxy-3-propylbenzoic acid]

- IC50 [1]: 300 nM
SMILES: CCCc1c(OCCCCCCc2cccc(O)c2O)ccc(C(=O)O)c1O [4-[6-(2,3-Dihydroxyphenyl)hexyloxy]-2-hydroxy-3-propylbenzoic acid]
- Hamster Colitis Model Hazard Ratio ([2]; 10 mg/kg p.o): 2.26
- Hamster Colitis Model Hazard Ratio ([2]; 100 mg/kg p.o): 4.22

- IC50 [1]: 300 nM
SMILES: CCCc1c(OCCCCCCCCc2cccc(O)c2O)ccc(C(=O)O)c1O [4-[8-(2,3-dihydroxyphenyl)octyloxy]-2-hydroxy-3-propylbenzoic acid]
